In one assay the test system is DU-145. The assay can be described thus: Growth inhibition of human DU145 cells after 48 hrs by SRB assay. Format: functional. As to conditions: DU-145, 48 h.
A further assay has as its system MDA-MB-231. Put plainly: Growth inhibition of human MDA-MB-231 cells after 48 hrs by SRB assay. Format: functional. The following applies: MDA-MB-231, 48 h. In general terms: Sulforhodamine B stains cellular protein and so reports cell mass.
Another assay concerns T47D. Put plainly: Growth inhibition of human T47D cells after 48 hrs by SRB assay. Format: functional.
Another assay relates to MDA-MB-468. Put plainly: Growth inhibition of human MDA-MB-468 cells after 48 hrs by SRB assay. Format: functional. As to conditions: MDA-MB-468, 48 h.
In another assay the test system is Malme-3M. The assay can be described thus: Growth inhibition of human MALME-3M cells after 48 hrs by SRB assay. Format: functional.
In the next assay the test system is M14. Put plainly: Growth inhibition of human M14 cells after 48 hrs by SRB assay. Format: functional. As to conditions: M14, 48 h.
Assay [1] can be described thus: Growth inhibition of human UACC257 cells after 48 hrs by SRB assay. Format: functional. As to conditions: UACC-257, 48 h.
Assay [2] concerns MCF7. The assay can be described thus: Growth inhibition of human MCF7 cells assessed as cell viability at 4 uM after 24 hrs by MTT assay. Format: functional, cell-based.
For assay [3], the system named is MCF7. The assay can be described thus: Induction of cell cycle arrestin human MCF7 cells assessed as downregulation of E2F-1 protein expression at 4 uM by Western blot analysis. Format: functional, cell-based.
The test system of another assay is HL-60(TB). The assay can be described thus: Growth inhibition of human HL-60(TB) cells after 48 hrs by SRB assay. Format: functional. As to conditions: HL-60, 48 h.
The nature of assay [4]: Growth inhibition of human MOLT4 cells after 48 hrs by SRB assay. Format: functional. As to conditions: MOLT-4, 48 h.
A further assay deals with SR. Put plainly: Growth inhibition of human SR cells after 48 hrs by SRB assay. Format: functional.
For another assay, the system named is NCI-H322M. Put plainly: Growth inhibition of human NCI-H322M cells after 48 hrs by SRB assay. Format: functional.
A further assay concerns NCI-H460. The assay can be described thus: Growth inhibition of human NCI-H460 cells after 48 hrs by SRB assay. Format: functional. The following applies: NCI-H460, 48 h.
The test system of another assay is HCT-116. Put plainly: Growth inhibition of human HCT116 cells after 48 hrs by SRB assay. As to conditions: HCT-116, 48 h. Format: functional.
Another assay has as its system SF-268. Put plainly: Growth inhibition of human SF268 cells after 48 hrs by SRB assay. Format: functional. The following applies: SF-268, 48 h.
A short description of assay [5]: Growth inhibition of human SF295 cells after 48 hrs by SRB assay. Format: functional. The following applies: SF-295, 48 h.
Another assay relates to SNB-19. The assay can be described thus: Growth inhibition of human SNB19 cells after 48 hrs by SRB assay. Format: functional. As to conditions: SNB-19, 48 h.
The nature of assay [6]: Growth inhibition of human OVCAR4 cells after 48 hrs by SRB assay. Format: functional. The following applies: OVCAR-4, 48 h.
The subject of the next assay is 786-0. Put plainly: Growth inhibition of human 786-0 cells after 48 hrs by SRB assay. The following applies: 786-0, 48 h. Format: functional.

Active and inactive are the calls of the source. The calls are words filed in the database; no cut-off is given here.

On to `COc1ccc(C(=O)/C=C/c2c(C(F)(F)F)nc3ccccn23)cc1OC`, for which the 50% growth inhibitory concentration (GI50) with DU-145 came to 0.65 µM; in the assay on MDA-MB-231 it was 3.06 µM; in the assay on T47D it was 1.43 µM; in the assay on MDA-MB-468 it was 1.9 µM; in the assay with Malme-3M it was 6.69 µM; in the assay on M14, 3.63 µM. For the same molecule, the GI50 in assay [1] turned out to be 0.62 µM; in the assay with HL-60(TB) it was 1.52 µM; in [4], 1.03 µM; in the assay on SR, 0.44 µM; with NCI-H322M it was 3.15 µM; in the assay on NCI-H460 it was 0.68 µM. For the same molecule, the GI50 in the assay with HCT-116 stood at 0.84 µM; with SF-268, 1.57 µM; in [5], 3.15 µM; in the assay on SNB-19, 1.59 µM; in [6], 2.49 µM; with 786-0 it was 2.87 µM. The inhibition entry with MCF7 [2] was “Active”. The inhibition result in the assay on MCF7 [3] is “inactive”.

By GI50 is commonly meant the concentration giving 50% growth inhibition. Low values mean greater sensitivity of the cells, high ones lower sensitivity of the cells.

Source of the values: ChEMBL document CHEMBL3217491, “Design, synthesis and biological evaluation of imidazopyridine/pyrimidine-chalcone derivatives as potential anticancer agents” (2010).
